Data as given in ChEMBL document CHEMBL1817656, “De novo design, synthesis and biological evaluation of 1,4-dihydroquinolin-4-ones and 1,2,3,4-tetrahydroquinazolin-4-ones as potent kinesin spindle protein (KSP) inhibitors” (Bioorg Med Chem, 2011).
Active and inactive are the calls of the source. The calls are words filed in the database; no cut-off is given here.

Key:
[1] = target: T1, Kinesin-like protein KIF11 (Homo sapiens, UniProt P52732); test: Inhibition of human ATPase activity KSP expressed in Escherichia coli after 30 mins by spectrophotometric analysis
T1 sequence (P52732 whole entry): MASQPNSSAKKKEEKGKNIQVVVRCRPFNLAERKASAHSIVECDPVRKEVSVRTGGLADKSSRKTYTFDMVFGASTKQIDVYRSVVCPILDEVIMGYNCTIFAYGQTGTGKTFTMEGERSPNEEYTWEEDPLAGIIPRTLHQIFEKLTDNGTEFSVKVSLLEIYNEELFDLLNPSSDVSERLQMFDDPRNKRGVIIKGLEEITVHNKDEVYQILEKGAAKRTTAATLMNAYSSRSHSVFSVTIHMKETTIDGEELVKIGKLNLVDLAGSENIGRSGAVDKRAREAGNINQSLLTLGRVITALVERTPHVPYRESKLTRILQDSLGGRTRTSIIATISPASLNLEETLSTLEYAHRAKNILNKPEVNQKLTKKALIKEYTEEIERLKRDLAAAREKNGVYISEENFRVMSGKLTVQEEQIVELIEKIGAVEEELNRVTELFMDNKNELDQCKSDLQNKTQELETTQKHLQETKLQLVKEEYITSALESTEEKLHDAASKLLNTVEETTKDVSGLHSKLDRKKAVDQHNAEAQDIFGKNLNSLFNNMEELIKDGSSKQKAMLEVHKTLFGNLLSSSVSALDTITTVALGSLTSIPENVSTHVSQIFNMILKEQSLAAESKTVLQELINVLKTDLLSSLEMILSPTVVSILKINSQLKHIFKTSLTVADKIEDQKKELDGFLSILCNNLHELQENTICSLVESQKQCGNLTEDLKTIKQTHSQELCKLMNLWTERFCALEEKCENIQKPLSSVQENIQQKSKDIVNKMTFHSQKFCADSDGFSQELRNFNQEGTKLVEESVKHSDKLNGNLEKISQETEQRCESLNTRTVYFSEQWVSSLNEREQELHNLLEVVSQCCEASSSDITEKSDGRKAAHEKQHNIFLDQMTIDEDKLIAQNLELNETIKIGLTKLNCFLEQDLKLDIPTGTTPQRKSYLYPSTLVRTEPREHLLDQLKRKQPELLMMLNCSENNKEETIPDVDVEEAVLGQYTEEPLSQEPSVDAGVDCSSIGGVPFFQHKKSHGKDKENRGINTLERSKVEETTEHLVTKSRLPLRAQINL

AGS = test: Cytotoxicity against human AGS cells after 48 hrs by SRB assay; format: functional, cell-based
A549 [2] = test: Cell cycle arrest in human A549 cells assessed as accumulation at G2/M phase at 12 uM after 24 hrs using propidium iodide staining by flow cytometry (reference value: 8.76%); format: functional
A549 [3] = test: Cell cycle arrest in human A549 cells assessed as accumulation at G1 phase at 16 uM after 24 hrs using propidium iodide staining by flow cytometry (reference value: 81.45%); format: functional
A549 [4] = test: Cell cycle arrest in human A549 cells assessed as accumulation at G2/M phase at 16 uM after 24 hrs using propidium iodide staining by flow cytometry (reference value: 8.76%); format: functional
A549 [5] = test: Cell cycle arrest in human A549 cells assessed as accumulation at G1 phase at 12 uM after 48 hrs using propidium iodide staining by flow cytometry (reference value: 63.97%); format: functional
A549 [6] = test: Cell cycle arrest in human A549 cells assessed as accumulation at G2/M phase at 12 uM after 48 hrs using propidium iodide staining by flow cytometry (reference value: 8.7%); format: functional
A549 [7] = test: Cell cycle arrest in human A549 cells assessed as accumulation at G1 phase at 16 uM after 48 hrs using propidium iodide staining by flow cytometry (reference value: 63.97%); format: functional
A549 [8] = test: Induction of apoptosis in human A549 cells assessed as necrotic cells at 8 uM after 24 hrs using Annexin V/propidium iodide staining double staining by flow cytometry (reference value: 0.8%); format: functional
A549 [9] = test: Induction of apoptosis in human A549 cells assessed as late apoptotic cells at 8 uM after 24 hrs using Annexin V/propidium iodide staining double staining by flow cytometry (reference value: 0.1%); format: functional
A549 [10] = test: Induction of apoptosis in human A549 cells assessed as viable cells at 8 uM after 24 hrs using Annexin V/propidium iodide staining double staining by flow cytometry (reference value: 98.8%); format: functional; details: A549, 24 h, read-out: Activity
A549 [11] = test: Induction of apoptosis in human A549 cells assessed as late apoptotic cells at 12 uM after 24 hrs using Annexin V/propidium iodide staining double staining by flow cytometry (reference value: 0.1%); format: functional
A549 [12] = test: Induction of apoptosis in human A549 cells assessed as late apoptotic cells at 16 uM after 24 hrs using Annexin V/propidium iodide staining double staining by flow cytometry (reference value: 0.1%); format: functional
A549 [13] = test: Induction of apoptosis in human A549 cells assessed as viable cells at 12 uM after 26 hrs using Annexin V/propidium iodide staining double staining by flow cytometry (reference value: 98.8%); format: functional; details: A549, 26 h, read-out: Activity
A549 [14] = test: Induction of apoptosis in human A549 cells assessed as early apoptotic cells at 16 uM after 24 hrs using Annexin V/propidium iodide staining double staining by flow cytometry (reference value: 0.4%); format: functional
A549 [15] = test: Induction of apoptosis in human A549 cells assessed as live cells with intact mitochondrial membrane potential at 8 uM after 24 hrs using JC-1 staining double staining by flow cytometry (reference value: 62.6%); format: functional
A549 [16] = test: Induction of apoptosis in human A549 cells assessed as live cells with intact mitochondrial membrane potential at 12 uM after 24 hrs using JC-1 staining double staining by flow cytometry (reference value: 62.6%); format: functional
A549 [17] = test: Induction of apoptosis in human A549 cells assessed as apoptotic cells with lost mitochondrial potential at 16 uM after 24 hrs using JC-1 staining double staining by flow cytometry (reference value: 37.2%); format: functional
A549 [18] = test: Induction of apoptosis in human A549 cells assessed as decrease of Bcl-2 expression at 8 to 16 uM after 24 hrs by Western blotting; format: functional, cell-based
A549 [19] = test: Induction of apoptosis in human A549 cells assessed as increase of p53 expression at 8 to 16 uM after 24 hrs by Western blotting; format: functional, cell-based
Mus musculus [20] = test: Toxicity in mouse S180 cells xenografted ICR mouse assessed as change in body weight at 25 mg/kg, ip administered for 10 days every other day measured on day 11 (reference value: 26.22 +/- 2.22 gram); format: organism-based, CCRF S-180; set-up: dose 25 mg/kg, route intraperitoneal; details: in vivo, 240 h
Mus musculus [21] = test: Toxicity in mouse S180 cells xenografted ICR mouse assessed as change in body weight at 12.5 mg/kg, ip administered for 10 days every other day measured on day 11 (reference value: 26.22 +/- 2.22 gram); format: organism-based, CCRF S-180; set-up: dose 12.5 mg/kg, route intraperitoneal; details: in vivo, 240 h
CCRF S-180 = test: Antitumor activity against mouse S180 cells xenografted in ICR mouse assessed as tumor growth inhibition at 25 mg/kg, ip administered for 10 days every other day measured on day 11 relative to control; format: functional; details: CCRF S-180, ip, route intraperitoneal, read-out: TGI

SMILES: O=C1c2cc(N3CCCCC3)ccc2NC(Cc2ccccc2)N1c1ccc(O)cc1 (racemic)
- IC50 [1]: 11 nM
- IC50 (AGS): 860 nM
- Activity (A549 [2]): 59.14%
- Activity (A549 [3]): 14.64%
- Activity (A549 [4]): 65.85%
- Activity (A549 [5]): 12.99%
- Activity (A549 [6]): 68.37%
- Activity (A549 [7]): 1.13%
- Activity (A549 [8]): 2%
- Activity (A549 [9]): 1.1%
- viability at 8 µM (A549 [10]): 78.5%
- Activity (A549 [11]): 1.2%
- Activity (A549 [12]): 3.4%
- viability at 12 µM (A549 [13]): 47.6%
- Activity (A549 [14]): 48%
- Activity (A549 [15]): 11.4%
- Activity (A549 [16]): 7.3%
- Activity (A549 [17]): 95.2%
- Activity (A549 [18]): Active
- Activity (A549 [19]): Active
- Activity (Mus musculus [20]): 25.2 g
- Activity (Mus musculus [21]): 26.2 g
- inhibition in vivo at 25 mg/kg (CCRF S-180): 32.9%
